Source: patent US8202886B2, “Small molecule E2F inhibitor” (H. Lee Moffitt Cancer Center and Research Institute, Inc., priority 2008, dated 2012)
Read-outs that look alike come from different tables or passages of the source.

Key:
E2F4 [1] = biological target: T1, E2F4 (Homo sapiens, UniProt Q16254); assay: E2F4 DNA-binding EMSA on whole cell extracts of treated A375 cells; type: cell-based; settings: for effect on E2F4 DNA-binding activity: 9-hrs
Method: Whole cell extracts of treated cells were prepared and the DNA-binding activity of E2F4 measured by EMSA.
PhosphoImager EMSA signals from four independent experiments were quantified using ImageQuant and the results are graphed in FIG. 10B. The apparent IC50 (drug concentration required to reduce total E2F4 DNA-binding activity by 50% of untreated cells was calculated using the Statistical Analysis System (Proc Probit)).
To determine the activity of the therapeutic compound over time, A375 cells were treated with 40-μM of compound and examined at 0-, 3-, 6-, 9-, 12-, 18- and 24-hrs by EMSA and western (FIG. 11A).
Quantitative EMSA assays were performed in triplicate.
Target sequence in this assay (Q16254 2-413 limits assumed): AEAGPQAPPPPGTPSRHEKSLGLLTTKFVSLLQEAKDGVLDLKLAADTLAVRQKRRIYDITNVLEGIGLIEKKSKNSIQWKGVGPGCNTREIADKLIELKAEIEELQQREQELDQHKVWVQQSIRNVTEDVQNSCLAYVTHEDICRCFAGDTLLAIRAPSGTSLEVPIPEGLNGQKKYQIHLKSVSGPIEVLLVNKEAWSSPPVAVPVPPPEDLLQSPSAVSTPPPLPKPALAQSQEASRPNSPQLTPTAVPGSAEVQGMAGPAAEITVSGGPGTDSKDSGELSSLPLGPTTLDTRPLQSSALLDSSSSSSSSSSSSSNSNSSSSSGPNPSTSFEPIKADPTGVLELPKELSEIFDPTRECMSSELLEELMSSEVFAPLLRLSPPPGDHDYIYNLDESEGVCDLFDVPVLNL
Target sequence in this assay (Q14186 whole entry partner): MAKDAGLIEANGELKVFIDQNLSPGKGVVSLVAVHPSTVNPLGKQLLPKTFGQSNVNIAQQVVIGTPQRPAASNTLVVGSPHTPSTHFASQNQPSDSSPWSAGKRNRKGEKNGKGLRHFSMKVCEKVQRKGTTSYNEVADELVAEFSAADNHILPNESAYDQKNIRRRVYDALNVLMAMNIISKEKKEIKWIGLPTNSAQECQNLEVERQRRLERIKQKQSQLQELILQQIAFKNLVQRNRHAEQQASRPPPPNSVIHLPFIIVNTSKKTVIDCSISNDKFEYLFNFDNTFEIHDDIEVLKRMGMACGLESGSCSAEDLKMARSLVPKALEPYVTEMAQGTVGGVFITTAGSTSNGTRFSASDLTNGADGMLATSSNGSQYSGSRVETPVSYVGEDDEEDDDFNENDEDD

8226-MR20 = assay: MTS viability assay, 8226-MR20; type: cell-based; settings: Homo sapiens
Method: Cells were collected 24 hours post drug exposure and extracts subjected to western blotting using antibodies to the indicated proteins. Cleavage of PARP indicates apoptosis.
To examine its effect on a range of commonly studied cell lines, the inventors utilized standard MTS assays to quantify cell viability following the therapeutic compound treatment. Cytotoxicity was determined using MTS assays, which were conducted using a CellTiter 96® AQueous One Cell Proliferation Assay Kit (Promega) following the published protocol. Cells in 0.1 ml volume were plated in triplicate into 96-well plates, 1×10^4 cells/well. the therapeutic compound was added and after 24 hours of incubation at 37° C., 20 μl of MTS dye was added to each well. Plates were read at 490 nm following 4 hrs MTS reaction time. The concentration of drug which produced a 50% inhibition of growth (IC50) was calculated from linear regression analysis of the linear portion of the growth curves.

A375 = assay: Apo-BrdU TUNEL apoptosis assay, A375; type: cell-based, human; settings: 40-μM, 24-hrs
Excerpt: (§1) To determine if treatment with the therapeutic compound contributes to apoptosis, Cells were detached from culture plates by trypsin treatment, washed twice with PBS, and fixed in 70% ethanol. Fixed cells were washed twice with PBS and treated with RNase A and propidium iodide (PI). PI staining was examined using a Becton-Dickinson FACScan instrument and Cell Quest software. TUNEL assay for apoptosis utilized a Pharmingen APO-BRDU Kit. MTS (3-(4,5-dimethylthiazol-2-yl)-5-(3-carboxymethoxyphenyl)-2-(4-sulfophenyl)-2H-tetrazolium, inner salt) assays were conducted using a CellTiter 96® AQueous One Cell Proliferation Assay Kit (Promega).
(§2) A375, MDA-MB-231 (231), MCF-7 and human foreskin fibroblasts (HFF) cells were treated with 40-μM of the therapeutic compound for 24-hrs and subjected to a FACS based terminal deoxynucleotidyl transferase (TUNEL) assay (Apo-BrdU Kit from BD Pharmingen).

[2] = test system: human foreskin fibroblasts (HFF); assay: Apo-BrdU TUNEL apoptosis assay, HFF; type: cell-based; settings: 40-μM, 24-hrs
Excerpt: as §1, §2

A375 cells = assay: Propidium iodide flow cytometry, sub-G1 DNA content; type: cell-based, human; settings: 40-μM
Excerpt: as §1

WT MEFS = assay: Apoptosis (ApoBrdU, PARP western) in WT MEFs; type: cell-based, mouse
Method: (§3) FIG. 12A: MEFS derived from sibling WT and E2F4^−/− mice were treated for 24-hrs with the indicated doses of HLM006474. Apoptosis was determined using ApoBrdU (BD Pharmingen).
(§4) FIG. 12B: MEFS derived from sibling WT and E2F4^−/− mice were treated as in A subjected to western blotting using a PARP antibody or E2F4 antibody. PARP cleavage (as indicated by the arrow) is an independent measure of apoptosis.
(§5) To determine if the effect of the therapeutic compound is dependent upon E2F4, the inventors compared the therapeutic compound response of immortalized MEFs derived from E2F4-deficient mice with MEFS derived from wildtype siblings.

E2F4-deficient MEFs = assay: Apoptosis (ApoBrdU, PARP western) in E2F4-deficient MEFs; type: cell-based, mouse
Method: as §3, §4, §5

lung cancer cell lines = assay: CT Blue Viability Assay, drug combinations; type: cell-based; settings: combination with taxol
Method: The indicated lung cancer cell lines were exposed to taxol, cisplatin, or gemacitabine alone, the therapeutic compound alone, or a combination as indicated. These experiments and analysis were performed in the Experimental Therapeutics Core using the CT Blue Viability Assay.

H1299 = assay: Western blots of treated H1299 cells; type: cell-based
Method: (§6) In order to further examine the mechanism of action of the therapeutic compound four lung cancer cell lines were treated with various concentrations of drug and western blots performed on cell extracts after 24 hr.

H460 = assay: Western blots of treated H460 cells; type: cell-based
Method: as §6

H292 = assay: Western blots of treated H292 cells; type: cell-based
Method: as §6

H358 = assay: Western blots of treated H358 cells; type: cell-based; settings: H358, 40 micromolar, 24 hrs
Method: The indicated NSCLC lines were treated with 40 micromolar the therapeutic compound and subjected western blotting 24 hrs later using the indicated antibodies.

MCF7 cells = assay: RNase protection assay, MCF7; type: cell-based, human
Method: The indicated breast cancer lines were treated with 40 micromolar the therapeutic compound and subjected RNAse protection assay 24 hrs later using the indicated probes.
An RNase protection assay was performed to determine if downregulation of the Rb family members at the level of mRNA could account for the downregulation of the proteins. Two breast cancer cell lines were examined at 0, 3, 6, 9, 18 and 24 hr following the therapeutic compound treatment (FIG. 21).

E2F4 [3] = biological target: T1, E2F4; assay: Whole-membrane E2F4 western for cleavage products; type: cell-based; design: endogenous in cells; settings: 40 uM
Target sequence in this assay (Q16254 whole entry): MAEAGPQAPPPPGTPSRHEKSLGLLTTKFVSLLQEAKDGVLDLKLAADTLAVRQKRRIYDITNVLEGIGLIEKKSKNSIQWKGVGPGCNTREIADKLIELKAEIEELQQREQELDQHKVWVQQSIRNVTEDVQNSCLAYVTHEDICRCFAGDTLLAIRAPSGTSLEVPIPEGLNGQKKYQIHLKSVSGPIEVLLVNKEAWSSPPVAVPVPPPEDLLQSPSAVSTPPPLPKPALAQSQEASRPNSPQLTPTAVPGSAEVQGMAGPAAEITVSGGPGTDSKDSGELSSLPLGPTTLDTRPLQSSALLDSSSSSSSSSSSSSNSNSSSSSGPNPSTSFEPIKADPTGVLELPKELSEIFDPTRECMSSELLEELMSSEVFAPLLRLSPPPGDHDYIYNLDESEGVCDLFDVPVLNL
Method: The indicated cell lines were treated with 40 micromolar the therapeutic compound and subjected to western blotting 24 hrs later. In this case, the entire lanes were subjected to western blot with an E2F4 antibody in order to detect potential immunoreactive truncation products.
For this experiment cells were treated with 40 uM the therapeutic compound and were subjected to western blotting. However, rather than cut the western membrane into three pieces (to probe simultaneously for three proteins of different sizes) the entire membrane was used to reveal smaller immunoreactive bands.

effect on E2F4 DNA-binding activity (E2F4 [1]; 10 and 20-μM): limited effect
reduction of E2F4 activity (E2F4 [1]; 40-μM drug, expected from dose response): 50-75%
effect on E2F4 DNA-binding activity (E2F4 [1]; 40-μM): inhibition is clearly apparent
IC50 (E2F4 [1]; A375 cells treated 9-hrs, EMSA, Proc Probit, read-out: IC50 (drug concentration required to reduce total E2F4 DNA-binding activity by 50% of untreated cells)): 29.8 µM
IC50 (E2F4 [1]; as restated for the NCI60 screen, read-out: known IC50): 30 µM
time at which inhibition of E2F4 DNA-binding activity became apparent (E2F4 [1]; single 40-μM dose): 9 h
E2F4 immunoreactive truncation product (E2F4 [3]): appearance of a 40 kD band
SMILES: CCOc1ccc(C(Nc2ccccn2)c2ccc3ccc(C)nc3c2O)cc1C (stereo not drawn) [HLM006474]
IC50 (8226-MR20): 46 ± 6 µM
apoptosis (TUNEL) (A375): dramatic induction of apoptosis
apoptosis (TUNEL) [2]: did not induce an obvious increase in apoptosis
time at which increase in sub-G1 DNA content begins (A375 cells): approximately 9 hrs
level of apoptosis in WT cells as compared to E2F4-deficient cells (WT MEFS; 24-hrs, ApoBrdU): two-fold increase
concentration at which PARP cleavage is evident (WT MEFS; E2F4 proficient MEFs): 20 µM
sensitivity of E2F4 knockout MEFs versus cells from littermate animals (E2F4-deficient MEFs): less sensitive
concentration required to detect PARP cleavage (E2F4-deficient MEFs; E2F4-deficient MEFs): 60 µM
synergy with taxol (lung cancer cell lines): synergizes significantly
Bcl-2 (western) (H1299; H1299, 40-μM): significant downregulation
Mcl-1 (western) (H1299; H1299, 40-μM): no change
sensitivity (downregulation of E2F1 and E2F4, PARP cleavage) (H1299; H1299, various concentrations, 24 hr): very sensitive
Bcl-2 or Mcl-2 (western) (H460; H460, 40-μM): did not show changes
sensitivity (downregulation of E2F1 and E2F4, PARP cleavage) (H460; H460, various concentrations, 24 hr): very sensitive
Mcl-1 (western) (H292; H292, 40-μM): downregulation of Mcl-1
sensitivity (downregulation of E2F1 and E2F4, PARP cleavage) (H292; H292, various concentrations, 24 hr): limited sensitivity
cyclin A or E2F1 (western) (H358): no decrease
Rb at the mRNA level (MCF7 cells; MCF7): no significant change
p21 mRNA (MCF7 cells; MCF7): upregulated
mRNA for p107 (MCF7 cells; MCF7, 0-24 hr): repressed
